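Step 1: Grow cells in 96-well plates. Step 2: Expose to compound for 48 hours at 5 concentrations. Step 3: Interpolate endpoints linearly; if unreached, use highest concentration. At the GI50, growth is halved. TGI is the concentration that stops growth completely.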
Legend:
Experiment in all cases: NCI anticancer screen, dose series, 48 h
OVCAR-3 ovarian = test system: OVCAR-3 ovarian
UACC-62 melanoma = test system: UACC-62 melanoma
U251 CNS = test system: U251 CNS
RXF 393 renal = test system: RXF 393 renal
786-0 renal = test system: 786-0 renal
CAKI-1 renal = test system: CAKI-1 renal
SN12C renal = test system: SN12C renal
MCF7 breast = test system: MCF7 breast
TK-10 renal = test system: TK-10 renal
EKVX NSCLC = test system: EKVX NSCLC

**Q.** How did the GI50 (OVCAR-3 ovarian) turn out when `CCn1cc(C(=O)O)c(=O)c2cc(F)c(N3CCN(S(=O)(=O)c4ccc(Cl)cc4Cl)CC3)cc21` was run?
**A.** 2.54 µM

**Q.** And the TGI (OVCAR-3 ovarian)?
**A.** 5.79 µM

**Q.** And the GI50 (UACC-62 melanoma)?
**A.** 1.62 µM

**Q.** What about the TGI (UACC-62 melanoma) of the same compound?
**A.** 3.42 µM

**Q.** And the GI50 (U251 CNS)?
**A.** 3.3 µM

**Q.** What about the TGI (U251 CNS) of the same compound?
**A.** 14.7 µM

**Q.** And the GI50 (RXF 393 renal)?
**A.** 2.08 µM

**Q.** And the TGI (RXF 393 renal)?
**A.** 5.68 µM

**Q.** And the GI50 (786-0 renal)?
**A.** 3.19 µM

**Q.** And the TGI (786-0 renal)?
**A.** 14.9 µM

**Q.** What about the GI50 (CAKI-1 renal) of the same compound?
**A.** 2.01 µM

**Q.** What about the TGI (CAKI-1 renal) of the same compound?
**A.** 4.8 µM

**Q.** And the GI50 (SN12C renal)?
**A.** 2.77 µM

**Q.** What about the TGI (SN12C renal) of the same compound?
**A.** > 100 µM

**Q.** What about the GI50 (MCF7 breast) of the same compound?
**A.** 2.95 µM

**Q.** What about the TGI (MCF7 breast) of the same compound?
**A.** 15.2 µM

**Q.** And the GI50 (TK-10 renal)?
**A.** 4.02 µM

**Q.** What about the TGI (TK-10 renal) of the same compound?
**A.** 23 µM

**Q.** For `COC(=O)C(=O)C(C(=O)C(=O)Nc1ccc([N+](=O)[O-])cc1)c1nc2ccccc2[nH]c1=O` (stereo unspecified), which TGI (OVCAR-3 ovarian) is on record?
**A.** > 100 µM

**Q.** What about the TGI (UACC-62 melanoma) of the same compound?
**A.** > 100 µM

**Q.** And the TGI (U251 CNS)?
**A.** > 100 µM

**Q.** What about the TGI (RXF 393 renal) of the same compound?
**A.** > 100 µM

**Q.** And the TGI (786-0 renal)?
**A.** > 100 µM

**Q.** And the TGI (CAKI-1 renal)?
**A.** > 100 µM

**Q.** What about the TGI (SN12C renal) of the same compound?
**A.** > 100 µM

**Q.** What about the TGI (TK-10 renal) of the same compound?
**A.** > 100 µM

**Q.** Which TGI (OVCAR-3 ovarian) does the source give for `O=C(/C=C/c1ccccc1)c1ccc(Cl)cc1Cl` here?
**A.** 40.2 µM

**Q.** What about the TGI (EKVX NSCLC) of the same compound?
**A.** 62.3 µM

**Q.** And the TGI (UACC-62 melanoma)?
**A.** 30 µM

**Q.** What about the TGI (U251 CNS) of the same compound?
**A.** 34.6 µM

**Q.** What about the TGI (786-0 renal) of the same compound?
**A.** 33.2 µM

**Q.** And the TGI (CAKI-1 renal)?
**A.** 64 µM

**Q.** And the TGI (SN12C renal)?
**A.** 57.7 µM

**Q.** And the TGI (TK-10 renal)?
**A.** > 100 µM

**Q.** Which TGI (OVCAR-3 ovarian) does the source give for `COC(=O)CC1(O)C(=O)OCc2c1cc1n(c2=O)Cc2c-1nc1ccccc1c2OC` (stereo unspecified) here?
**A.** > 57.4 µM

**Q.** What about the TGI (EKVX NSCLC) of the same compound?
**A.** > 100 µM

**Q.** What about the TGI (UACC-62 melanoma) of the same compound?
**A.** 2.29 µM

**Q.** And the TGI (U251 CNS)?
**A.** 2.11 µM

**Q.** What about the TGI (RXF 393 renal) of the same compound?
**A.** 8.42 µM

**Q.** And the TGI (786-0 renal)?
**A.** 0.813 µM

**Q.** What about the TGI (CAKI-1 renal) of the same compound?
**A.** 4.62 µM

**Q.** And the TGI (SN12C renal)?
**A.** 1.84 µM

**Q.** What about the TGI (TK-10 renal) of the same compound?
**A.** > 100 µM

**Q.** How did the GI50 (UACC-62 melanoma) turn out when `O=C(/C=C/c1ccc(O)c(O)c1)N1CCN(c2ccc(Cl)cc2)CC1` was run?
**A.** 6.36 µM

**Q.** And the TGI (UACC-62 melanoma)?
**A.** 23.3 µM

**Q.** And the GI50 (U251 CNS)?
**A.** 5 µM

**Q.** And the TGI (U251 CNS)?
**A.** 23.3 µM

**Q.** What about the GI50 (786-0 renal) of the same compound?
**A.** 9.39 µM

**Q.** And the TGI (786-0 renal)?
**A.** 37 µM

**Q.** What about the GI50 (CAKI-1 renal) of the same compound?
**A.** 4.71 µM

**Q.** What about the TGI (CAKI-1 renal) of the same compound?
**A.** 48 µM

**Q.** What about the GI50 (SN12C renal) of the same compound?
**A.** 4.11 µM

**Q.** What about the TGI (SN12C renal) of the same compound?
**A.** 42.2 µM

**Q.** And the GI50 (MCF7 breast)?
**A.** 6.08 µM

**Q.** And the TGI (MCF7 breast)?
**A.** 25 µM

**Q.** What about the GI50 (TK-10 renal) of the same compound?
**A.** 3.59 µM

**Q.** What about the TGI (TK-10 renal) of the same compound?
**A.** 26.2 µM

**Q.** Which results are given for `CC1NOC(=O)C1N=Nc1cccc(Cl)c1` (stereo unspecified)?
**A.** TGI (OVCAR-3 ovarian): 60.4 µM; TGI (EKVX NSCLC): > 100 µM; TGI (UACC-62 melanoma): > 100 µM; TGI (U251 CNS): 60.2 µM; TGI (RXF 393 renal): 64.1 µM; TGI (786-0 renal): > 100 µM; TGI (CAKI-1 renal): > 100 µM; TGI (SN12C renal): > 100 µM; TGI (TK-10 renal): > 100 µM

**Q.** What does the source list for `C=CCC(N[C@@H](CO)c1ccccc1)c1ccc2ccccc2n1` (stereo partly specified)?
**A.** GI50 (OVCAR-3 ovarian): 57.4 µM; TGI (OVCAR-3 ovarian): > 100 µM; GI50 (EKVX NSCLC): > 100 µM; TGI (EKVX NSCLC): > 100 µM; GI50 (UACC-62 melanoma): > 100 µM; TGI (UACC-62 melanoma): > 100 µM; GI50 (U251 CNS): > 100 µM; TGI (U251 CNS): > 100 µM; GI50 (RXF 393 renal): > 100 µM; TGI (RXF 393 renal): > 100 µM; GI50 (786-0 renal): > 100 µM; TGI (786-0 renal): > 100 µM; GI50 (CAKI-1 renal): > 100 µM; TGI (CAKI-1 renal): > 100 µM; GI50 (SN12C renal): 67.5 µM; TGI (SN12C renal): > 100 µM; GI50 (TK-10 renal): > 100 µM; TGI (TK-10 renal): > 100 µM

**Q.** With `COc1ccc(/C=C/C(=N\NC(=O)c2ccccc2)c2sc(Nc3ccc([N+](=O)[O-])cc3)nc2C)cc1OC` as the compound, how does the TGI (OVCAR-3 ovarian) read?
**A.** 61.5 µM

**Q.** What about the TGI (EKVX NSCLC) of the same compound?
**A.** 91 µM

**Q.** What about the TGI (UACC-62 melanoma) of the same compound?
**A.** 6.78 µM

**Q.** What about the TGI (U251 CNS) of the same compound?
**A.** 18.6 µM

**Q.** What about the TGI (RXF 393 renal) of the same compound?
**A.** 52.5 µM

**Q.** And the TGI (786-0 renal)?
**A.** 26.5 µM

**Q.** What about the TGI (CAKI-1 renal) of the same compound?
**A.** 32.8 µM

**Q.** What about the TGI (SN12C renal) of the same compound?
**A.** > 100 µM

**Q.** And the TGI (TK-10 renal)?
**A.** 66.5 µM

**Q.** What does the source list for `CN1C2C=CC(=O)C1C1C(=O)N(c3ccccc3)C(=O)C12` (stereo unspecified)?
**A.** GI50 (OVCAR-3 ovarian): 2.35 µM; TGI (OVCAR-3 ovarian): 6.73 µM; GI50 (EKVX NSCLC): 14.4 µM; TGI (EKVX NSCLC): 32.7 µM; GI50 (UACC-62 melanoma): 11.5 µM; TGI (UACC-62 melanoma): 24.3 µM; GI50 (U251 CNS): 7.16 µM; TGI (U251 CNS): 20.8 µM; GI50 (786-0 renal): 3.57 µM; TGI (786-0 renal): 15.4 µM; GI50 (CAKI-1 renal): 1.66 µM; TGI (CAKI-1 renal): 4.27 µM; GI50 (SN12C renal): 5.09 µM; TGI (SN12C renal): 31.9 µM; GI50 (MCF7 breast): 4.01 µM; TGI (MCF7 breast): 16.5 µM; GI50 (TK-10 renal): 4.55 µM; TGI (TK-10 renal): 18.9 µM

— PubChem BioAssay (NCI)
